{"source": "patent US12637499B2", "about": "“Adrenomedullin analog, method for producing the same, and pharmaceutical use thereof” (priority 2020, dated 2026)", "key": {"in vitro [1]": {"assay": "in vitro", "conditions": "serum, pH 7.1", "experimental": "(§1) After the lapse of a predetermined time, a 30-μl portion was taken out of the reaction solution, transferred into 170 μl of 0.1% aqueous solution of trifluoroacetic acid (TFA), and stored at −80° C. until analysis.\n(§2) Quantitative analysis was performed for AM contained in the thus-obtained samples of a reaction mixture with serum or plasma by using specific fluoroimmunoassay (Tosoh Corporation) with two antibodies differing in their recognition sites. […] In the figure, the abscissa represents reaction time (min), and the ordinate represents concentration of AM (UM).\nIn the figure, the abscissa represents reaction time (min), and the ordinate represents concentration of AM or an AM analog (μM).\nIn the figure, the abscissa represents the type of AM or an AM analog, and the ordinate represents residual rates of AM or an AM analog (%)."}, "in vivo": {"assay": "in vivo", "conditions": "male, Wistar, rat, plasma, sc, 50 nmol/kg", "description": "Eight-week-old male Wistar rats were purchased from Charles River Laboratories Japan, Inc. The rats were grown with normal feeds in the absence of specific pathogens under cycles of a 12-hour light period and a 12-hour dark period. […] To determine plasma AM concentrations, 50 nmol/kg of AM or an AM analog was subcutaneously administered. A peripheral blood sample was collected from the tail vein into a test tube (containing 21 μg of aprotinin and 0.3 mg of EDTA-2Na) at predetermined times (0, 15, 30, 60, and 120 minutes after administration). The test tube was centrifuged at 1,700×g to afford plasma."}, "in vitro [2]": {"assay": "in vitro", "conditions": "plasma, pH 7.1", "experimental": "as §1, §2"}, "in vitro [3]": {"assay": "in vitro", "conditions": "Experiment VIII; 10^−7 M, 37° C.; 1 hour after the beginning of reaction"}}}
{"smiles": "CC[C@H](C)[C@H](NC(=O)[C@H](CCC(N)=O)NC(=O)[C@H](Cc1c[nH]cn1)NC(=O)[C@H](C)NC(=O)[C@H](CC(C)C)NC(=O)[C@H](CCCCN)NC(=O)[C@H](CCC(N)=O)NC(=O)[C@@H](NC(=O)[C@@H](NC(=O)[C@@H]1CSSC[C@H](NC(=O)CNC(=O)[C@H](Cc2ccccc2)NC(=O)[C@H](CO)NC(=O)[C@H](CCCNC(=N)N)NC(=O)[C@H](CC(C)C)NC(=O)CNC(=O)[C@H](CCC(N)=O)NC(=O)[C@H](Cc2ccccc2)NC(=O)[C@H](CC(N)=O)NC(=O)[C@H](CC(N)=O)NC(=O)[C@H](CCSC)NC(=O)[C@H](CO)NC(=O)[C@H](CCC(N)=O)NC(=O)[C@H](CCCNC(=N)N)NC(=O)[C@@H](N)Cc2ccc(O)cc2)C(=O)N[C@@H](CCCNC(=N)N)C(=O)N[C@@H](Cc2ccccc2)C(=O)NCC(=O)N[C@@H]([C@@H](C)O)C(=O)N1)[C@@H](C)O)C(C)C)C(=O)N[C@@H](Cc1ccc(O)cc1)C(=O)N[C@@H](CCC(N)=O)C(=O)N[C@@H](Cc1ccccc1)C(=O)N[C@H](C(=O)N[C@@H](CC(=O)O)C(=O)N[C@@H](CCCCN)C(=O)N[C@@H](CC(=O)O)C(=O)N[C@@H](CCCCN)C(=O)N[C@@H](CC(=O)O)C(=O)N[C@@H](CC(N)=O)C(=O)N[C@H](C(=O)N[C@@H](C)C(=O)N1CCC[C@H]1C(=O)N[C@@H](CCCNC(=N)N)C(=O)N[C@@H](CO)C(=O)N[C@@H](CCCCN)C(=O)N[C@H](C(=O)N[C@@H](CO)C(=O)N1CCC[C@H]1C(=O)N[C@@H](CCC(N)=O)C(=O)NCC(=O)N[C@@H](Cc1ccc(O)cc1)C(N)=O)[C@@H](C)CC)C(C)C)[C@@H](C)O", "note": "[hAM(1-52), YRQSMNNFQGLRSFGCRFGTCTVQKLAHQIYQFTDKDKDNVAPRSKISPQGY-CONH2, reference compound]", "values": [{"measurement": "remaining at 4 h", "setting": "in vitro [1]", "value": 0.2, "unit": "%"}, {"measurement": "half-life", "setting": "in vivo", "value": 1.23, "unit": "h"}, {"measurement": "remaining at 4 h", "setting": "in vitro [2]", "value": 85, "unit": "%"}, {"measurement": "presence in reaction mixture with human serum", "setting": "in vitro [3]", "value": "substantially disappeared"}]}
